This test in a line: Inhibition of Saccharomyces cerevisiae alpha-glucosidase using p-nitrophenyl alpha-D-glucoside as substrate incubated for 0.5 hrs followed by substrate addition and measured after 1 hr by colorimetric assay.
Broadly, the IC50 is the midpoint of a concentration-inhibition curve. Read a low IC50 as greater potency. Turning to `COc1ccc([C@@H]2CC(=O)c3c(O)cc(O)c(O)c3O2)cc1`, the midpoint of inhibition, the IC50, lay at 256 µM.

On to `C[C@H]1O[C@H](O[C@H]2[C@H](O)[C@@H](O)[C@@H](O[C@H]3[C@H](O)[C@@H](O)C(O)O[C@@H]3CO)O[C@@H]2CO)[C@H](O)[C@@H](O)[C@@H]1N[C@H]1C=C(CO)[C@@H](O)[C@H](O)[C@H]1O` (some centres undefined) [ACARBOSE], for which 73.7 µM corresponded to half-maximal inhibition (IC50). Against the preceding molecule, the IC50 is about 3.5-fold lower.

For `O=C(/C=C/c1ccc(O)cc1)NCCc1ccc(O)cc1` [N-P-COUMAROYL TYRAMINE], half-maximal inhibition (IC50) required 4.5 µM. This IC50 is about 16-fold lower than that of the molecule before.

`COc1cc(/C=C/C(=O)NCCc2ccc(O)cc2)ccc1O` [N-TRANS-FERULOYL TYRAMINE] registered a half-inhibitory concentration (IC50) of 24.7 µM.

Values taken from ChEMBL document CHEMBL4414635, “Dasymaschalolactams A-E, Aristolactams from a Twig Extract of Dasymaschalon dasymaschalum” (J Nat Prod, 2019).
